Test results published in patent publication US10807960B2, “Compounds, compositions, and methods for controlling biofilms” (KATHOLIEKE UNIVERSITEIT LEUVEN, priority 2015, dated 2020).
Where two headings read alike, the source gives them in different places. Marks after values point to notes of the source that are not given here.

Columns and labels:
[1] = test system: C. albicans SC5314 + E. coli MG1655; assay: mixed C. albicans/E. coli biofilm assay, selective plating; assay type: cell-based, Candida albicans; E. coli; conditions: 37° C.; for CFUs % survival E. coli: E. coli in mixed biofilm with C. albicans
Method: Overnight cultures of C. albicans SC5314 (YPD) and E. coli MG1655 (TSB). were washed three times with PBS, after which they were diluted in RPMI medium to optical densities at 600 nm (OD600) of 1 and 0.01, respectively. Equal volumes of these cell suspensions were mixed, and 100 μl of this mixed cell suspension together with compound was added to the wells of a microtiter plate in triplicate. The concentrations 25 μM (0.0625% DMSO or ethanol) and 100 μM (0.25% DMSO or ethanol) were tested. After 24 h incubation at 37° C. the medium was removed and the biofilm was washed with PBS. Next, the cells were re-suspended in 100 μl of PBS by scraping off, sonication (1 min, 45 kHz, USC300-T; VWR, Radnor, Pa., USA) and vigorously pipetting up-and-down. Finally, dilution series were made, and quantification of E. coli MG1655 and C. albicans SC5314 populations was performed using selective plating on TSA plates containing 25 mg/L amphotericin B and YPD plates containing 100 μg/ml tetracycline, respectively. The percentage of C. albicans SC5314 and E. coli MG1655 cells was determined relative to the DMSO or ethanol control treatment.

[2] = test system: S. Typhimurium ATCC14028; assay: static peg (Calgary Biofilm Device) anti-biofilm assay, crystal violet and OD600; conditions: read-out: BIC50; biofilm formation, 25° C.
[3] = test system: P. aeruginosa PA14; assay: as above
[4] = test system: S. aureus ATCC6538 + S. epidermidis; assay: mixed S. aureus/S. epidermidis biofilm assay, crystal violet; assay type: cell-based; conditions: 37° C. (Table 3)
Method: Overnight cultures of S. aureus ATCC6538 and S. epidermidis were grown in LB medium and were diluted 1/200 in the same vial of TSB to form a mixed culture suspension.

[5] = test system: C. albicans SC5314 + S. epidermidis; assay: mixed C. albicans/S. epidermidis biofilm assay, selective plating; assay type: cell-based, Candida albicans; Staphylococcus epidermidis; conditions: for CFUs % survival C.a.: C. albicans in mixed biofilm with S. epidermidis; for CFUs % survival C.a. / CFUs % survival S.e.: 37° C.; for CFUs % survival S.e.: S. epidermidis in mixed biofilm with C. albicans
Method: The concentrations 25 μM (0.0625% DMSO or ethanol) and 100 μM (0.25% DMSO or ethanol) were tested. After 24 h of incubation at 37° C., biofilms were washed with PBS and fresh medium with or without compounds was added. After further incubation for 48 h at 37° C., the biofilms were washed with PBS after which the cells were re-suspended in 100 μl of PBS by scraping off, sonication (1 min, 45 kHz, USC300-T; VWR, Radnor, Pa., USA) and vigorously pipetting up-and-down. Finally, the biofilm cells were diluted in PBS and plated on YPD agar plates containing 100 mg/L ampicillin and TSA plates containing 25 mg/L amphotericin B, to determine the number of fungal and bacterial CFUs after 2 days of incubation at 37° C., respectively. The percentage of C. albicans SC5314 and S. epidermidis cells was determined relative to the DMSO or ethanol control treatment.

[6] = test system: C. albicans SC5314 + S. aureus SH1000; assay: mixed C. albicans/S. aureus biofilm assay, selective plating; assay type: cell-based, Candida albicans; Staphylococcus aureus; conditions: 37° C.; for CFUs % survival S.a.: S. aureus in mixed biofilm with C. albicans
Method: Overnight cultures of C. albicans SC5314 (YPD, 30° C.) and S. aureus SH1000 (LB, 37° C.) were washed with PBS, after which they were diluted in RPMI medium to obtain cell suspensions of 10^6 cells/ml for fungal cells and 10^8 cells/ml for bacteria. Equal volumes of these cell suspensions were mixed, and 100 μl of this mixed cell suspension together with compound was added to the wells of a microtiter plate in triplicate. The concentrations 25 μM (0.0625% DMSO or ethanol) and 100 μM (0.25% DMSO or ethanol) were tested. The plates were incubated at 37° C. for 90 min. After incubation the wells were washed twice with PBS, and 200 μl of the fresh RPMI medium with or without compounds was added in triplicate to the wells. After 24 h incubation at 37° C. the medium was removed and the biofilm was washed with PBS. Next, the cells were re-suspended in 100 μl of PBS by scraping off, sonication (1 min, 45 kHz, USC300-T; VWR, Radnor, Pa., USA) and vigorously pipetting up-and-down. Finally, dilution series were made, and quantification of S. aureus SH1000 and C. albicans SC5314 populations was performed using selective plating on TSA plates containing 25 mg/L amphotericin B and YPD plates containing 100 μg/ml tetracycline, respectively. The percentage of C. albicans SC5314 and S. aureus SH1000 cells was determined relative to the DMSO or ethanol control treatment.

[7] = test system: S. aureus ATCC6538; assay: static peg (Calgary Biofilm Device) anti-biofilm assay, crystal violet and OD600; conditions: 37° C.
[8] = test system: S. liquefaciens MG44; assay: as above; assay type: cell-based, Serratia liquefaciens
[9] = test system: C. albicans SC5314; assay: inhibition of C. albicans biofilms, cell titer blue (CTB) quantification; assay type: cell-based, Candida albicans; conditions: biofilm formation, read-out: BIC50
Method: The potential of the compounds to prevent C. albicans SC5314 biofilm formation was assessed using the cell titer blue (CTB) quantification method (26). For the CTB method, an overnight culture of C. albicans SC5314 was washed with PBS and a cell suspension of 10^6 cells/ml (OD600=0.1) was prepared in RPMI 1640 medium (pH 7.0). […] After 16 h of static incubation at 37° C., biofilms were washed and quantified with CTB as described previously.

[10] = test system: B. cepacia LMG1222T; assay: static peg (Calgary Biofilm Device) anti-biofilm assay, crystal violet and OD600; conditions: 25° C.
[11] = test system: S. epidermidis; assay: as above; conditions: 37° C.
[12] = C. albicans in mixed biofilm with E. coli MG1655, 25 μM
[13] = C. albicans in mixed biofilm with E. coli MG1655, 100 μM
[14] = read-out: BIC50, biofilm formation, 25° C.
[15] = read-out: BIC50, biofilm formation, 37° C.
[16] = mixed biofilm formation, read-out: BIC50
[17] = planktonic growth of mixed culture, read-out: IC50
[18] = C. albicans in mixed biofilm with S. aureus SH1000, 25 μM
[19] = C. albicans in mixed biofilm with S. aureus SH1000, 100 μM
[20] = read-out: BIC50, biofilm formation
[21] = biofilm formation, 25° C., read-out: BIC50
[22] = planktonic growth, 25° C., read-out: IC50

| Compound | CFUs % survival C.a. [1, 12] [%] | CFUs % survival C.a. [1, 13] | CFUs % survival E. coli ([1]; 25 μM) [%] | CFUs % survival E. coli ([1]; 100 μM) | IC50 [2] [µM] | IC50 ([3]; planktonic growth, 37° C.) [µM] | IC50 [3, 14] [µM] | IC50 [3, 15] [µM] | IC50 [4, 16] [µM] | IC50 [4, 17] [µM] | CFUs % survival C.a. ([5]; 25 μM) | CFUs % survival C.a. ([5]; 100 μM) | CFUs % survival S.e. ([5]; 25 μM) | CFUs % survival S.e. ([5]; 100 μM) | CFUs % survival C.a. [6, 18] [%] | CFUs % survival C.a. [6, 19] | CFUs % survival S.a. ([6]; 25 μM) [%] | CFUs % survival S.a. ([6]; 100 μM) | IC50 ([7]; planktonic growth) [µM] | IC50 [7, 20] [µM] | other results |
| --- | --- | --- | --- | --- | --- | --- | --- | --- | --- | --- | --- | --- | --- | --- | --- | --- | --- | --- | --- | --- | --- |
| CCCCCCCCn1c(-c2ccc(Cl)cc2)cnc1N [Compound 2] | 104.9 | 0.0* % | 158.6 | 0.1* % | ~5.9 | 10 | 4 | 118 | ~7.2 | ~9.9 | <0.6* % | <0.2* % | 0.0* % | 0.0* % | 183.8 | 0.9* % | 87.7 | 0.2* % | 7.8 | 2.8 | biofilm formation of C. albicans/S. epidermidis (in words) ([5]; 25 μM): completely inhibited; IC50 ([8]; biofilm formation, read-out: BIC50): 18.8 µM; IC50 ([8]; planktonic growth, read-out: IC50): 38 µM; IC50 [9]: 6.2 µM; IC50 ([10]; planktonic growth): > 400 µM; IC50 [10, 20]: 145 µM; IC50 ([11]; planktonic growth): ~11.1 µM; IC50 [11, 20]: ~5.6 µM |
| Clc1ccc(-c2cnc(NC3CCCC3)[nH]2)cc1 [Compound 5] | 100.8 | 38.3* % | 100.6 | 105.6* % | 4.4 | > 400 | 13.5 | > 400 | ~66.6 | ~91.7 | 167.9% | 594.7% | 72.0% | 2.3* % | 232.4 | 120.6% | 75.4 | 74.5* % | 62.3 | 34.4 | activity against S. epidermidis in the C. albicans/S. epidermidis biofilm (in words) ([5]; 100 μM): complete inhibition; IC50 [8, 21]: 8.8 µM; IC50 [8, 22]: 125 µM; IC50 ([9]; 37° C.): 64 µM; IC50 ([10]; planktonic growth): > 400 µM; IC50 [10, 20]: 331 µM; IC50 ([11]; planktonic growth): 39.5 µM; IC50 [11, 20]: > 400 µM |
| CC(C)CNc1ncc(-c2ccc(Cl)cc2)[nH]1 [Compound 3] | 143.4 | 59.6* % | 138.5 | 63.0* % | 2 | > 400 | 0.9 | > 400 | ~26.3 | ~140 | 58.3* % | 235.1% | 64.6* % | 13.2* % | 165.7 | 141.3% | 124.6 | 51.8* % | ~96.1 | 95.3 | IC50 [8, 21]: 10.4 µM; IC50 [8, 22]: 154 µM; IC50 ([9]; 37° C.): 93.9 µM; IC50 ([10]; planktonic growth): > 400 µM; IC50 [10, 20]: 88.1 µM; IC50 ([11]; planktonic growth): 86.2 µM; IC50 [11, 20]: > 400 µM |
